From PMC12366525, “Characterization of allosteric modulators that disrupt androgen receptor co-activator protein-protein interactions to alter transactivation–Drug leads for metastatic castration resistant prostate cancer” (SLAS discovery : advancing life sciences R & D, 2023)

How the values were obtained:
TIF2 = biological target: T1, TIF2 (Homo sapiens, UniProt Q15596); assay: Western blotting cellular thermal shift assay for TIF2 in C4–2 cells; format: cell-based; conditions: 20 μM 1 h at 37 °C prior to heat shock at 46 °C
T1 construct: endogenous in cells; host or cells: C4–2 cells
Protocol: C4–2 cells were harvested by trypsinization, washed 1x by centrifugation at 270 × g for 5 min and resuspension in PBS, counted, centrifugated at 270 × g for 5 min and resuspended at 7 × 10 [6] cells per mL in Opti-MEM medium (Gibco, Gaithersburg, MD). 50 μL of C4–2 cell suspension (3.5 × 10 [5] cells) were then transferred to PCR tubes that were placed in a T-100 thermocycler (BioRad, Hercules, CA) and a 2 °C interval temperature step gradient from 37 °C to 53 °C was applied. Cells were maintained at each step of the temperature gradient for 5 min and then tubes were withdrawn and placed on ice. 50 μL of cell lysis buffer, 500 mM NaCl, 1% NP-40, 1x protease inhibitor cocktail in PBS were added to the heat shocked cell suspensions in PCR tubes and placed on ice for an additional 30 min. Cell lysates were then centrifuged at 14,000 RPM (18,800 × g) at 4 °C for 15 min and supernatants were transferred to new tubes and protein concentrations were determined in a bicinchoninic acid (BCA) assay. 45 μL of cell lysis supernatants were mixed with 15 μL of 5x SDS-PAGE sample buffer and placed in a heat block at 100 °C for 5 min. The protein constituents of heat shocked C4–2 cell lysis supernatants were separated by SDS-PAGE on 8% separating gels, transferred to nitrocellulose membranes that were blocked for 1 h at room temperature in 5% non-fat milk in TBST, and then probed overnight at 4 °C with a 1:1000 dilution of either rabbit anti-AR (Cell Signaling, Danvers, MA) or rabbit anti-TIF2 (Bethyl Laboratories, Waltham, MA) primary antibodies in TBST containing 5% non-fat milk. Membranes were then washed 3x in TBST buffer for 10 min, then incubated with a 1:10,000 dilution of the goat anti-rabbit IgG HRP conjugated secondary antibody (Invitrogen, Carlsbad,CA) in TBST containing 5% non-fat milk for 1 h at room temperature. Western blots were then washed 3x in TBST buffer and developed with Pierce ECL western blotting substrate. Images of ECL western blots were acquired on an iBright 1500 imaging system and quantified using the iBright image analysis software.

PSA = assay: Dot blot of PSA secretion by C4–2 cells; format: cell-based, human; conditions: 10 nM DHT 24 h; 20 μM compound 3 h pre-exposure
Protocol: To determine PSA secretion levels, C4–2 cells were seeded at 1.4 × 10 [5] cells/well in 12-well plates and treated as described above for PSA cell expression experiments. […] 500 μL of conditioned media supernatant was added to the wells of 96-well to Bio-blot apparatus (BioRad, Hercules, CA) containing a nitrocellulose membrane and was allowed to pass through and attach to the membrane under gravity for 3–4 h at room temperature. The membrane was washed 1x with 500 μL TBS under vacuum, blocked with 1% BSA in TBST for 1 h, and then incubated overnight at 4 °C with the primary rabbit anti-hPSA antibody (Cell Signaling, Danvers, MA) diluted 1:1000 in TBST plus 1% BSA. Dot blots were washed 3x in 10 mL of TBST for 10 min, then incubated for 1 h with secondary goat anti-rabbit-IgG HRP conjugated antibody (Invitrogen, Carlsbad, CA) diluted 1:10,000 in TBST plus 1% Bovine Serum Albumin (BSA), washed 3x with 10 mL of TBST for 10 min, and then developed with Pierce ECL western blotting substrate. Images of ECL dot blots were acquired on an iBright 1500 imaging system and quantified by iBright image analysis software.

AR-LBD = biological target: T2, AR-LBD (Homo sapiens, UniProt P10275); assay: H^3-DHT radioligand competition binding assay; conditions: 10 nM H^3-DHT, recombinant His6-AR-LBD
T2 construct: The pET28a-AR-LBD (622–919) construct [78] was a gift; made in house
T2 sequence (P10275 622-919): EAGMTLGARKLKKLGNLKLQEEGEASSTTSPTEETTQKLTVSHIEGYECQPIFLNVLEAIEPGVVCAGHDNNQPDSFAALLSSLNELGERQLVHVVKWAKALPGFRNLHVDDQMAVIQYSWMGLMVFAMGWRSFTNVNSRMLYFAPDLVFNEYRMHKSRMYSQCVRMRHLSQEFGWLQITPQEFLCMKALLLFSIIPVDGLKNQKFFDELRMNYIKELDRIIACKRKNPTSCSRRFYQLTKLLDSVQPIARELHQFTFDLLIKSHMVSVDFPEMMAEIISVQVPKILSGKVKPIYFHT
Protocol: The His6-AR-LBD H^3-DHT competition binding assay has been described previously. Briefly, 96-well Cu^2+-coated plates (ThermoFisher) were incubated overnight at 4 °C with 5 μg per well His6-AR-LBD in 100 μL of PBS. Unbound His6-AR-LBD was aspirated, the plate was washed 3 × with 100 μL of 0.05% Tween 20 in PBS and then blocked with 100 μL of 1 mg/mL BSA in PBS for 1 h. After three more washes with 100 μL of PBS and 0.05% Tween 20, 40 μL of PBS was added to wells followed by 5 μL each of diluted compounds and 100 nM H^3-DHT transferred into the wells using a Matrix pipettor. Compounds were tested between 0.098 to 50 μM in the presence of 10 nM H^3-DHT. After 1 h, compounds and H^3-DHT were aspirated and washed 3 × with 0.05% Tween 20 in PBS; 100 μL of Microscint™−20 micro-scintillation cocktail buffer (Perkin Elmer, Waltham, MA) was added to each well, plates were sealed with adhesive plastic covers; and the counts per minute (CPMs) were captured in a TopCount NXT microtiter plate reader (Perkin Elmer, Waltham, MA).

T1 sequence (Q15596 whole entry): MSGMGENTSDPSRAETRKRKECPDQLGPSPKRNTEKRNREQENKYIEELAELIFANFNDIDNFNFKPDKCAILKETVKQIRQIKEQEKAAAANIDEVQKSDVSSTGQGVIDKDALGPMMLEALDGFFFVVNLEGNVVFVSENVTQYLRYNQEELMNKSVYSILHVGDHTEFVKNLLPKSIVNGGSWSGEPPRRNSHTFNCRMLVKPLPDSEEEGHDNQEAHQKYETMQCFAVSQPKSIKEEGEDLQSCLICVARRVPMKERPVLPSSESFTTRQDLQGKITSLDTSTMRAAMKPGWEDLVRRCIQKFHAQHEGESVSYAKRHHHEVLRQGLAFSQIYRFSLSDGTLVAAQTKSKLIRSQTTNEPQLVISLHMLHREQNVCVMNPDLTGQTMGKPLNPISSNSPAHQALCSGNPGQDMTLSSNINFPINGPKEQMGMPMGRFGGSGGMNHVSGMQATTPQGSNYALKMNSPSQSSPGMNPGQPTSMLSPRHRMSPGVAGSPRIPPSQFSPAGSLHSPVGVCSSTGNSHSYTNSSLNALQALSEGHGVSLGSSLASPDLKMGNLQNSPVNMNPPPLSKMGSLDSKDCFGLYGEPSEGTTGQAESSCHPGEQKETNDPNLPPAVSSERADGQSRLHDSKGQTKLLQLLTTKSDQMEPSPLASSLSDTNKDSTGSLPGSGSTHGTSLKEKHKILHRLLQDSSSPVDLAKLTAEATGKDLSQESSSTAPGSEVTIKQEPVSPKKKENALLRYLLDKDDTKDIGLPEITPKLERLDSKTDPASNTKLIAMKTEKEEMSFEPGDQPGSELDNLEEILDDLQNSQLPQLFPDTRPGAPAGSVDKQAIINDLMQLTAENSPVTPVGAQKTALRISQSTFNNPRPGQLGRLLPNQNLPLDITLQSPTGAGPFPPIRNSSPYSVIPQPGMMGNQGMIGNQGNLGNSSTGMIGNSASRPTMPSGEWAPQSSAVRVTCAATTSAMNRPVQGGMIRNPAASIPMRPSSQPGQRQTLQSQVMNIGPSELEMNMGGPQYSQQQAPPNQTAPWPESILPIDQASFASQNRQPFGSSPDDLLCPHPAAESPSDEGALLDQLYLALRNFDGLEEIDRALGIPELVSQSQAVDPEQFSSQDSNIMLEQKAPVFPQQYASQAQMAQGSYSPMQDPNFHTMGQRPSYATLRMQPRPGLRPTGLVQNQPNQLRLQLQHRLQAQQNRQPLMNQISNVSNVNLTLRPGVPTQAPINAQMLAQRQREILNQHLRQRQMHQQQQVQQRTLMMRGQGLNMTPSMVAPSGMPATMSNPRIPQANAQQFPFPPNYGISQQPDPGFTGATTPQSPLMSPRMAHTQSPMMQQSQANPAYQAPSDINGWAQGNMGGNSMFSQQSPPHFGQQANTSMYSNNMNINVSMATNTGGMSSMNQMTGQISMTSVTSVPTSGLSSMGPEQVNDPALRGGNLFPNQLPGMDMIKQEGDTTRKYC

SMILES	IC50 (AR-LBD)	Effect on TIF2 thermal stability (TIF2)	C4-2 cell supernatants PSA Dot Blot, relative to DMSO (100%) (PSA)
Cc1nsc(NC(=O)N2CCC(Sc3ccccc3C)CC2)n1 [S2–6]		did not enhance TIF2 thermal stability over DMSO	12.8%
Cc1c(-c2ccccc2F)[nH]c2ccc(CNC(=O)CCc3cn[nH]c3)cc12 [S3–11]		did not enhance TIF2 thermal stability over DMSO	25.5%
Cc1c(-c2ccccc2F)[nH]c2ccc(CNC(=O)c3ccc(CO)o3)cc12 [S3–14]	62.9 µM		

More lines, main results first:

IC50 (AR-LBD)	SMILES	Effect on TIF2 thermal stability (TIF2)	C4-2 cell supernatants PSA Dot Blot, relative to DMSO (100%) (PSA)
43.7 µM	Cc1ccccc1-c1cc(O)c2c(c1)CN(c1nc(C(N)=O)cs1)CCO2 [S1–1]	did not enhance TIF2 thermal stability over DMSO	57.7%
> 100 µM	Cc1ccccc1-c1cc(O)c2c(c1)CN(c1nccs1)CCO2 [S1–3]		
